Consider 21 compounds from US9926297B2, “Bicyclic AZA compounds as muscarinic M1 receptor and/or M4 receptor agonists” (Heptares Therapeutics Limited, priority 2014, dated 2018).

Like-named read-outs stand apart in the source and are kept apart here.

Broadly, the Emax is the maximal effect, on the per cent scale that the assay sets.

Assay [1] addresses T1, human muscarinic M1 receptor (Homo sapiens, UniProt P11229).
T1 sequence (P11229 1-460): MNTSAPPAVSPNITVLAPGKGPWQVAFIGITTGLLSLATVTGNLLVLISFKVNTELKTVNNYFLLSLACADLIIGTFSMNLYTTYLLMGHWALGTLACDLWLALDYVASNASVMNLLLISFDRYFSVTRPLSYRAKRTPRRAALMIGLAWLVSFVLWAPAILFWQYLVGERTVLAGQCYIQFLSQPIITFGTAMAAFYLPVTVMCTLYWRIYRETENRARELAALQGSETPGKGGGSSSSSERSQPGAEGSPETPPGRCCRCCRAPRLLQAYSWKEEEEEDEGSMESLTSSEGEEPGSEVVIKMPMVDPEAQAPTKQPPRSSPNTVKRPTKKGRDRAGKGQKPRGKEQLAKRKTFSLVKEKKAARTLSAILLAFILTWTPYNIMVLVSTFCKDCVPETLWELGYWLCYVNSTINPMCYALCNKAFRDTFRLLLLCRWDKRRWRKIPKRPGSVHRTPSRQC
Description: Alphascreen Surefire phospho-ERK1/2 functional assay, M1. Particulars: for EC50 / % Emax cf. ACh, M1: CHO cells stably expressing human M1; for EC50: phospho-ERK1/2, * = variable results, read-out: pEC50 M1 (converted); for Emax: CHO. In kind it is cell-based. Background: In Alpha technology, singlet oxygen from a donor bead excites a nearby acceptor bead.
Description: CHO cells stably expressing the human muscarinic M1, M2, M3 or M4 receptor were plated (25K/well) onto 96-well tissue culture plates in MEM-alpha+10% dialysed FBS. Once adhered, cells were serum-starved overnight. Agonist stimulation was performed by the addition of 5 μL agonist to the cells for 5 min (37° C.). Media was removed and 50 μL of lysis buffer added. After 15 min, a 4 μL sample was transferred to 384-well plate and 7 μL of detection mixture added. Plates were incubated for 2 h with gentle agitation in the dark and then read on a PHERAstar plate reader.
pEC50 and Emax figures were calculated from the resulting data for each receptor subtype.

The target in assay [2] is T2, human muscarinic M4 receptor (Homo sapiens, UniProt P08173).
T2 construct: expressed in transfected cells
T2 sequence (P08173 1-479): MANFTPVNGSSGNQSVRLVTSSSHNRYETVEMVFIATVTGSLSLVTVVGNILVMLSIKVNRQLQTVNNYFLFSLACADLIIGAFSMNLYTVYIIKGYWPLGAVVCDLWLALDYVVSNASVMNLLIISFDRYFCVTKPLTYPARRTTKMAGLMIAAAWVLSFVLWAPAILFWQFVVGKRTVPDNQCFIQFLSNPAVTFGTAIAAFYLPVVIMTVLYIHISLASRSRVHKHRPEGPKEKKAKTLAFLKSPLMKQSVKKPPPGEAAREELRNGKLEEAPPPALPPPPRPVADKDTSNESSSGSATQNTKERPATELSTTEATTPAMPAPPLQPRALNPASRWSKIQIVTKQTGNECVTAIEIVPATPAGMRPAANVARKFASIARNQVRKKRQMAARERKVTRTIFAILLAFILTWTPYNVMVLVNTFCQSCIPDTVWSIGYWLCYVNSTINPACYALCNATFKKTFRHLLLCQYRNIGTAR
Description: Alphascreen Surefire phospho-ERK1/2 functional assay, M4. In kind it is cell-based. As to conditions: for EC50 / % Emax cf. ACh, M4: CHO cells stably expressing human M4; for EC50: phospho-ERK1/2, * = variable results, read-out: pEC50 M4 (converted); for Emax: CHO.

The mark [3] stands for this setting: read-out: % Emax cf. ACh, M1, CHO cells stably expressing human M1, relative to ACh.
[4] abbreviates: read-out: % Emax cf. ACh, M4, CHO cells stably expressing human M4, relative to ACh.

For the compound `CCOC(=O)N1CCC2(CC(N3CCC(N4CCCC[C@@H]4C(=O)N(C)C)CC3)C2)C1` (single isomer, unassigned) [4-17 Isomer 2], the EC50 in assay [1] is above 20000 nM; in assay [2] it was 251 nM. In addition, the Emax came to 27% in assay [1] (setting [3]) and 106% in assay [2] (setting [4]).
In the case of `CCOC(=O)N1CCC2(CC(N3CCC(N4CC5CC5C4)CC3)C2)C1` (single isomer, unassigned) [2-105 Isomer 2, ethyl 2-[4-(3-azabicyclo[3.1.0]hex-3-yl)piperidin-1-yl]-6-azaspiro[3.4]octane-6-carboxylate], the EC50 in assay [1] is above 20000 nM; in assay [2], 200 nM. For the same compound, the maximal effect (Emax) was 26% in assay [1] (setting [3]) and 38% in assay [2] (setting [4]).
On to `COC(=O)N1CCC2(CC(N3CCC(C4CCCN4C(=O)OC)CC3)C2)C1` (single isomer, unassigned) [2-10 Isomer 2, methyl 2-{4-[1-(methoxycarbonyl)pyrrolidin-2-yl]piperidin-1-yl}-6-azaspiro[3.4]octane-6-carboxylate], for which the EC50 in assay [1] is above 20000 nM; in assay [2] it was 200 nM. The figures for the Emax in assay [1] (setting [3]) and in assay [2] (setting [4]) were 19% and 50%, respectively.
Regarding `CCOC(=O)N1CCC2(CC(N3CCC([C@@H]4CCCN4c4ncccn4)CC3)C2)C1` (single isomer, unassigned) [2-81 Isomer 2], the EC50 in assay [1] was above 20000 nM; in assay [2] it was 63.1 nM. Further, the maximal response (Emax) in assay [1] (setting [3]) came to 12%; in assay [2] (setting [4]), 33%.
On to `CCOC(=O)N1CCC2(CC(N3CCC([C@@H]4CCCN4CCC(F)(F)F)CC3)C2)C1` (single isomer, unassigned) [2-70 Isomer 1], for which the EC50 in assay [1] is 3980 nM; in assay [2], 158 nM. In addition, in assay [1] (relative to ACh), the “% Emax cf. ACh, M1” value stood at 37%. The “% Emax cf. ACh, M4” value in assay [2] (relative to ACh) is 52%.
Take `CCOC(=O)N1CCC2(CC(N3CCC(c4cc[nH]c(=O)c4)CC3)C2)C1` (single isomer, unassigned) [3-16 Isomer 2, ethyl 2-[4-(2-oxo-1,2-dihydropyridin-4-yl)piperidin-1-yl]-6-azaspiro[3.4]octane-6-carboxylate]: the EC50 is 7940 nM in assay [1] and 2510 nM in assay [2]. Further, the Emax in assay [1] (setting [3]) amounted to 39%; in assay [2] (setting [4]), 47%.
Consider `CCOC(=O)N1CCC2(CC(N3CCC(c4nnnn4CC)CC3)C2)C1` (single isomer, unassigned) [1-65 Isomer 2, ethyl 2-[4-(1-ethyl-1H-tetrazol-5-yl)piperidin-1-yl]-6-azaspiro[3.4]octane-6-carboxylate], for which the EC50 in assay [1] was above 20000 nM; in assay [2] it was 251 nM. The Emax was 60% in assay [1] (setting [3]) and 73% in assay [2] (setting [4]).
On to `CCOC(=O)N1CCC2(CC(N3CCC(N4CCCC4c4nnnn4C)CC3)C2)C1` (single isomer, unassigned) [2-130 Isomer 1, ethyl 2-{4-[2-(1-methyl-1H-tetrazol-5-yl)pyrrolidin-1-yl]piperidin-1-yl}-6-azaspiro[3.4]octane-6-carboxylate], for which the values for the EC50 in assay [1] and in assay [2] were 316 nM and 12.6 nM, respectively. Besides, the “% Emax cf. ACh, M1” value in assay [1] (relative to ACh) is listed as 42%. In addition, in assay [2] (relative to ACh), the “% Emax cf. ACh, M4” value is reported as 20%.
Regarding `CCOC(=O)N1CCC2(CC(N3CCC(c4nccn4CC(=O)O)CC3)C2)C1` (single isomer, unassigned) [1-53 Isomer 2, (2-{1-[6-(ethoxycarbonyl)-6-azaspiro[3.4]oct-2-yl]piperidin-4-yl}-1H-imidazol-1-yl)acetic acid], the EC50 in assay [1] was 5010 nM; in assay [2], 1260 nM. Also, the Emax in assay [1] (setting [3]) came out at 38%; in assay [2] (setting [4]), 80%.
Consider `CCOC(=O)N1CCC2(CC(N3CCC([C@@H]4CCCN4C(=O)N4Cc5cccnc5C4)CC3)C2)C1` (single isomer, unassigned) [2-133 Isomer 1], for which the EC50 in assay [1] was above 20000 nM; in assay [2], 10 nM. Besides, the “% Emax cf. ACh, M1” value in assay [1] (relative to ACh) is reported as 37%. Further, the “% Emax cf. ACh, M4” value in assay [2] (relative to ACh) turned out to be 70%.
Regarding `CCOC(=O)N1CCC2(CC(N3CCC(N4CCCCC4)CC3)C2)C1` (single isomer, unassigned) [4-10 Isomer 2, ethyl 2-(1,4′-bipiperidin-1′-yl)-6-azaspiro[3.4]octane-6-carboxylate], the values for the EC50 in assay [1] and in assay [2] were above 20000 nM and 251 nM, respectively. The values for the Emax in assay [1] (setting [3]) and in assay [2] (setting [4]) were 7% and 31%, respectively.
As to `CCOC(=O)N1CCC2(CC(N3CCC(N4CCCC[C@H]4C(=O)NC)CC3)C2)C1` (single isomer, unassigned) [4-18 Isomer 2], the EC50 in assay [1] was 3160 nM; in assay [2], 631 nM. The maximal effect (Emax) in assay [1] (setting [3]) came to 76%; in assay [2] (setting [4]), 79%.
For `CCC(=O)N1CCCC1C1CCN(C2CC3(CCN(C(=O)OC)C3)C2)CC1` (single isomer, unassigned) [2-5 Isomer 2, methyl 2-[4-(1-propanoylpyrrolidin-2-yl)piperidin-1-yl]-6-azaspiro[3.4]octane-6-carboxylate], in that order: 6310 nM, 158 nM, 34% and 66%.
For `CCOC(=O)N1CCC2(CC(N3CCC(c4nccn4CC(=O)NC)CC3)C2)C1` (single isomer, unassigned) [1-54 Isomer 2, ethyl 2-(4-{1-[2-(methylamino)-2-oxoethyl]-1H-imidazol-2-yl}piperidin-1-yl)-6-azaspiro[3.4]octane-6-carboxylate], in that order: above 20000 nM, 794 nM, 51% and 74%.
On the same counts, the results for `CCOC(=O)N1CCC2(CC(N3CCC([C@@H]4CCCN4c4nncs4)CC3)C2)C1` (single isomer, unassigned) [2-83 Isomer 2] are 3980 nM, 10 nM, 55% and 100%.
For the compound `CCOC(=O)N1CCC2(CC(N3CCC(C4CCCCN4C(=O)NC)CC3)C2)C1` (single isomer, unassigned) [4-20 Isomer 2, ethyl 2-[1-(methylcarbamoyl)-2,4′-bipiperidin-1′-yl]-6-azaspiro[3.4]octane-6-carboxylate], the EC50 is above 20000 nM in assay [1] and 158 nM in assay [2]. Besides, the Emax was 11% in assay [1] (setting [3]) and 34% in assay [2] (setting [4]).
On the same counts, the results for `CCOC(=O)N1CCC2(CC(N3CCC(N4CC(F)(F)C[C@H]4C(=O)N(C)C)CC3)C2)C1` (single isomer, unassigned) [2-94 Isomer 2] are above 20000 nM, 6760 nM, 7% and 80%.
Consider `CCOC(=O)N1CCC2(CC(N3CCC(N4CCN(C)C4=O)CC3)C2)C1` (single isomer, unassigned) [2-125 Isomer 2, ethyl 2-[4-(3-methyl-2-oxoimidazolidin-1-yl)piperidin-1-yl]-6-azaspiro[3.4]octane-6-carboxylate], for which the EC50 is 3980 nM in assay [1] and 316 nM in assay [2]. Further, the Emax stood at 32% in assay [1] (setting [3]) and 81% in assay [2] (setting [4]).
On the same counts, the results for `CCOC(=O)N1CCC2(CC(N3CCC(c4ncc(C)n4C)CC3)C2)C1` (single isomer, unassigned) [1-10 Isomer 2, ethyl 2-[4-(1,5-dimethyl-1H-imidazol-2-yl)piperidin-1-yl]-6-azaspiro[3.4]octane-6-carboxylate] are 5010 nM, 251 nM, 62% and 106%.
In the case of `CCOC(=O)N1CCC2(CC(N3CCC(OC)(c4nccn4C)CC3)C2)C1` (single isomer, unassigned) [1-40 Isomer 2, ethyl 2-[4-methoxy-4-(1-methyl-1H-imidazol-2-yl)piperidin-1-yl]-6-azaspiro[3.4]octane-6-carboxylate], the results for the EC50 in assay [1] and in assay [2] were above 20000 nM and 158 nM, respectively. For the same compound, the maximal response (Emax) came to 904% in assay [1] (read-out: % Emax cf. ACh, M1) and 50% in assay [2] (read-out: % Emax cf. ACh, M4).
With `CCOC(=O)N1CCC2(CC(N3CCC(n4cncn4)CC3)C2)C1` (single isomer, unassigned) [1-36 Isomer 2, ethyl 2-[4-(1H-1,2,4-triazol-1-yl)piperidin-1-yl]-6-azaspiro[3.4]octane-6-carboxylate], the EC50 was 5010 nM in assay [1] and 251 nM in assay [2]. In addition, the maximal response (Emax) in assay [1] (setting [3]) stood at 73%; in assay [2] (setting [4]) it was 47%.
